Test results: paper PMC8289695 (Cell Reports, 2021)
Read-outs that look alike come from different tables or passages of the source.

Columns and labels:
SARS-CoV-2 [1] = assay: microbe, parasite or virus in culture; format: cell-based, strain USA_WA1/2020
SARS-CoV-2 [2] = format: cell-based, strain USA_WA1/2020; details: VPS34-IN1 5 μM, orlistat 500 μM, triacsin C 5 μM, TOFA 50 μM, 2-bromopalmitate 50 μM, A922500 30 μM, remdesivir 1 μM
SARS-CoV-2 [3] = format: cell-based, strain USA_WA1/2020
Vero E6 cells = details: concentrations below 16.67 μM of 10-point dose response
SARS-CoV-2 [4] = assay: microbe, parasite or virus in culture; format: cell-based, strain USA_WA1/2020; details: Severe acute respiratory syndrome coronavirus 2, Calu-3, read-out: IC50, infectious virus production (plaque assay)
SARS-CoV-2 [5] = format: cell-based, strain USA_WA1/2020; remark: listed apart in the source
VPS34 = VPS34 (Homo sapiens, UniProt Q8NEB9); format: cell-based; details: Huh7 cells, 24 h treatment; VPS34-IN1 2 μM, PIK-III 5 μM, SAR405 5 μM, Compound 19 5 μM, Orlistat 200 μM
[6] = read-out: IC50, infectious virus production (focus forming assay)

Sequence of VPS34 (Q8NEB9 whole entry): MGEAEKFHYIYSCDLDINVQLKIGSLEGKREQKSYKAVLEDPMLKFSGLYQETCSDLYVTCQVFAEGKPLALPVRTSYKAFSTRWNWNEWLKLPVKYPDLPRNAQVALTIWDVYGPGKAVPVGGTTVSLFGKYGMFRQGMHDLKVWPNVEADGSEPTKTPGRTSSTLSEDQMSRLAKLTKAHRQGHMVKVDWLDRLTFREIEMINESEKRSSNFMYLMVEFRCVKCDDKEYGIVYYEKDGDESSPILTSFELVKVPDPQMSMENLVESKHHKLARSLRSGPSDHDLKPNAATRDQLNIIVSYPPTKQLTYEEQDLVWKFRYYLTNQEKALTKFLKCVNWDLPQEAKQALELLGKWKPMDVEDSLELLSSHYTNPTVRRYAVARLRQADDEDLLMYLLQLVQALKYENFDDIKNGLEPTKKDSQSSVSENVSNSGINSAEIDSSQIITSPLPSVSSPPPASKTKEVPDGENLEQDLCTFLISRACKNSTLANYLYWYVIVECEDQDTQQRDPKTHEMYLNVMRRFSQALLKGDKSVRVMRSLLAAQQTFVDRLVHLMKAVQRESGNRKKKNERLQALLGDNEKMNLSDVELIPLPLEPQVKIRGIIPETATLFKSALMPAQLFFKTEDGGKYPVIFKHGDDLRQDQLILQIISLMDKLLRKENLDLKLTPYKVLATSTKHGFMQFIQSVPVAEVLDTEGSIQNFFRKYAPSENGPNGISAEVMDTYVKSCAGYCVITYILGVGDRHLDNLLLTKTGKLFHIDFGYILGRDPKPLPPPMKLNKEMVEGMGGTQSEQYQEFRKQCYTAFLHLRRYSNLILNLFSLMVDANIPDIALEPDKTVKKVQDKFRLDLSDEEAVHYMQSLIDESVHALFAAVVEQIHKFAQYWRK

CCCCCCCCCCCCCCC(Br)C(=O)O (stereo not shown) [2-bromopalmitate]
concentrations at which infectious virus production was inhibited (SARS-CoV-2 [1]): greater than 10 μM | IC50 (SARS-CoV-2 [1]; [6]): 23000 nM | dsRNA and SARS-CoV-2 N distribution (replication centers) (SARS-CoV-2 [2]): fewer but larger foci positive for both markers | viral RNA levels (SARS-CoV-2 [3]): reduced RNA levels at both MOI 0.01 and 1

O=C(Nc1ccccc1)Nc1ccc(-c2ccc(C(=O)[C@@H]3CCC[C@H]3C(=O)O)cc2)cc1 [A922500]
IC50 (SARS-CoV-2 [1]; [6]): 4020 nM | dsRNA and SARS-CoV-2 N distribution (replication centers) (SARS-CoV-2 [2]): loss of these distinct puncta and dispersion of dsRNA and SARS-CoV-2 N

C=C1C(=O)OC(CCCCCCCC)C1C(=O)O (stereo not shown) [C75]
IC50 (SARS-CoV-2 [1]; [6]): 22800 nM

Nc1ncc(-c2ccnc(Nc3ccncc3)n2)c(CC2CC2)n1 [PIK-III]
toxicity at the remaining concentrations (resistance 1-20 hpi) (Vero E6 cells): no toxicity was observed | IC50 (SARS-CoV-2 [4]): 120 nM

C[C@@H]1COCCN1c1cc(=O)n2c(n1)N(Cc1cncc(Cl)c1)[C@H](C(F)(F)F)CC2 [SAR405]
IC50 (SARS-CoV-2 [1]; Severe acute respiratory syndrome coronavirus 2, Calu-3, read-out: IC50, infectious virus production (focus forming assay)): 376 nM

CCCCCCCCCCCCCCOc1ccc(C(=O)O)o1 [TOFA]
IC50 (SARS-CoV-2 [1]; [6]): 1340 nM | dsRNA and SARS-CoV-2 N distribution (replication centers) (SARS-CoV-2 [2]): loss of these distinct puncta and dispersion of dsRNA and SARS-CoV-2 N

CC(C)(O)CNc1ncc(-c2ccnc(Nc3ccnc(Cl)c3)n2)c(CC2CC2)n1 [VPS34-IN1]
toxicity at the remaining concentrations (resistance 1-20 hpi) (Vero E6 cells): no toxicity was observed | IC50 (SARS-CoV-2 [4]): 550 nM | dsRNA and SARS-CoV-2 N distribution (replication centers) (SARS-CoV-2 [2]): loss of these distinct puncta and dispersion of dsRNA and SARS-CoV-2 N | viral RNA levels (SARS-CoV-2 [3]): reduced RNA levels at both MOI 0.01 and 1

CCOC(=O)[C@@]1(CCCCCCOc2ccc(Cl)cc2)CO1 [etomoxir]
inhibition of SARS-CoV-2 (focus forming assay) (SARS-CoV-2 [1]): Neither compound showed any inhibition

CCCCCCCCCCC[C@@H](C[C@@H]1OC(=O)[C@H]1CCCCCC)OC(=O)[C@H](CC(C)C)NC=O [orlistat]
inhibition of viral cytopathic effects at highest concentration (SARS-CoV-2 [5]): complete inhibition was not achieved | IC50 (SARS-CoV-2 [4]): 21200 nM | effect on GFP-2xFYVE localization to endosomes (puncta) (VPS34): did not affect GFP-2xFYVE localization | dsRNA and SARS-CoV-2 N distribution (replication centers) (SARS-CoV-2 [2]): loss of these distinct puncta and dispersion of dsRNA and SARS-CoV-2 N | viral RNA levels (SARS-CoV-2 [3]): reduced RNA levels at both MOI 0.01 and 1

CCC(CC)COC(=O)[C@H](C)N[P@](=O)(OC[C@H]1O[C@@](C#N)(c2ccc3c(N)ncnn23)[C@H](O)[C@@H]1O)Oc1ccccc1 [remdesivir]
dsRNA and SARS-CoV-2 N distribution (replication centers) (SARS-CoV-2 [2]): distribution of N and dsRNA similar to the DMSO control | RNA synthesis at earlier time points (4 and 10 hpi) (SARS-CoV-2 [3]): inhibited RNA synthesis at earlier time points as well

CCC/C=C/C/C=C/C=C/C=N/NN=O [triacsin C]
IC50 (SARS-CoV-2 [4]): 40 nM | dsRNA and SARS-CoV-2 N distribution (replication centers) (SARS-CoV-2 [2]): fewer but larger foci positive for both markers | viral RNA levels (SARS-CoV-2 [3]): reduced RNA levels at both MOI 0.01 and 1

COc1ccc(CN2CCNCC2)c(OC)c1OC [trimetazidine]
inhibition of SARS-CoV-2 (focus forming assay) (SARS-CoV-2 [1]): Neither compound showed any inhibition
